The text below walks through data of article PMC5131364, “Pharmacologic modulation of RORγt translates to efficacy in preclinical and translational models of psoriasis and inflammatory arthritis” (Scientific Reports, 2016).

Where two headings read alike, the source gives them in different places.

Assay type in all cases: cell-based
Assay [1] relates to mouse splenocytes. The assay can be described thus: IL-23 induced IL-17A and IL-22 production in mouse splenocytes. Conditions: Splenocyte, 96 h, IL-23 and IL-2, 4 days. On the procedure: (§1) Mouse CD4+ T cell in vitro Th1 differentiation
(§2) Total CD4+ T cells were isolated from splenocytes of C57/BL6 mice (Chareles River Labrotory) using a CD4+ T cell isolation kit (Miltenyl Biotec, Auburn, CA), following the manufacturer’s instructions. Cells were resuspended in culture medium (described in Method section of Th17 differentiation) and were added to 96‐well plates at 2x10^5 per well. Titrated JNJ‐54271074 was added to each well at final DMSO concentration of 0.2%. Cells were incubated for 1 hour, after which Th1 cell differentiation medium was added with final concentrations of 1 µg/ml anti‐CD3, 5 µg/mL anti‐CD28 (BD Pharmingen, San Diego, CA), 10 µg/ml anti‐IL4, 10 ng/mL IL‐12, (R&D Systems, Minneapolis, MN). Cells were cultured at 37 °C and 5% CO2 for 3 days. Supernatants were collected and the accumulated cytokines in culture were measured by ELISA kits (R&D Systems, Minneapolis, MN) following manufacturers' instructions.
IL‐23 induced IL‐17A and IL‐22 production in mouse splenocytes splenocytes were isolated from C57/BL6 mice and resuspended in medium and cultured in 96‐well plates at […] per 100 µL per well. […] Supernatants were collected and the accumulated cytokines in culture were measured by ELISA according to the manufacturer’s instructions (IL‐17A kit from R&D systems, and IL‐22 from Biolegend San Diego). […]

Assay [2] has as its system human CCR6+ T cells. The assay can be described thus: Human CCR6+ cells under Th1 differentiation condition. Conditions: Th1 polarization conditions. As to the method:
as §1, §2
IL‐23 induced IL‐17A and IL‐22 production in mouse splenocytes splenocytes were isolated from C57/BL6 mice and resuspended in medium and cultured in 96‐well plates at […] per 100 µL per well. Titrated JNJ‐54271074 in DMSO were added into each well and cells were incubated for 1 hour, then medium containing IL‐23 and IL‐2 (R&D systems) was added to each well at final concentration of 1 ng/mL and 10 U/ml, respectively. Cells were cultured at 37 °C and 5% CO2 for 4 days. Supernatants were collected and the accumulated cytokines in culture were measured by ELISA according to the manufacturer’s instructions (IL‐17A kit from R&D systems, and IL‐22 from Biolegend San Diego).
Human CCR6+ cells in vitro culture without activation or under Th1 differentiation condition Human CCR6+ cells were isolated as described in Method. For experiment without activation, cells were cultured with recombinant IL‐7 (R&D) at final concentration of 10 ng/ml in the presence of 1 µM JNJ‐ 54271074 for 4 days before intracellular staining. […]

Assay [3] deals with naïve CD4+ T cells under Th17-polarizing conditions. The assay is described as follows: In vitro mouse Th17 differentiation. Conditions: for IC50: Mus musculus, CD4+ T. The source says:
The following antibodies (anti-mouse or anti-human) were purchased from BD Biosciences (San Diego, CA) or eBioscience (San Diego, CA): anti-CD3-FITC (mouse 17A2 and human SK7), anti-CD4-allophycocyanin (APC), anti-CD4-PerCp, anti-CD4-FITC, anti-CD4-PE (mouse GK1.5 and human SK3), anti-CD44-PerCp (mouse IM7), anti-γδ TCR-FITC, anti-γδ TCR-PE (mouse GL3 and human B1), anti-CD62L-FITC (mouse MEL-14 and human SK11), anti-CD45RO-APC (human UCHL1), anti-CCR6-PE (human 11A9), anti-CD45-PerCp (mouse 30-F11). Human or mouse anti-IFNγ (mouse XMG1.2 and human 4S.B3), anti-TNFα (mouse MP6-XT22 and human MAB11), anti-IL-17A (mouse eBio17B7 and human eBio64DEC17), anti-IL-22 (mouse 1H8PWSR and human 22URTI), and anti-Foxp3 (mouse FJK-16s and human 36A/E7), all PE or APC conjugated, were purchased from eBioscience (San Diego, CA). Human and mouse APC conjugated CD1d tetramers pre-loaded with alpha-GalCer and negative controls were obtained from ProImmune. For intracellular staining cells were stimulated for 4 hours at 37 °C with PMA and ionomycin (0.5 μg/ml each) in the presence of brefeldin A and monensin or with leukocyte activation cocktail (BD Bioscience, San Diego, CA). Cells were stained with fluorescence-labeled antibodies for surface marker, then fixed/permeabilized (eBioscience) and stained with antibodies for intracellular cytokines. For Foxp3 staining cells were fixed/permeabilized using transcription factor buffer set (eBioscience). The data were acquired on a FACS Calibur (BD Bioscience) and analyzed using FlowJo software (Tree Star, San Carlos, CA).
Naïve CD4^+ T cells were isolated from splenocytes of C57BL/6N mice using a naïve CD4^+ T cell isolation kit II (Miltenyl Biotec, Auburn, CA), following the manufacturer’s instructions. Cells were resuspended in culture medium (RPMI-1640 medium supplemented with 10% fetal bovine serum, 50 IU/ml penicillin, 50 μg/ml streptomycin, 2 mM glutamine, and 55 μM β-mercaptoethanol), and were added to 96-well plates at 2 × 10^5 per well. […] Cells were incubated for 1 hour, after which Th17 cell differentiation medium was added with final concentrations of 1 μg/ml anti-CD3, 5 μg/mL anti-CD28 (BD Pharmingen, San Diego, CA), 10 μg/ml anti-IL-4, 10 μg/ml anti-IFNγ, 10 ng/mL IL-23, 10 ng/mL IL-6, and 10 ng/ml TGFβ (R&D Systems, Minneapolis, MN). Cells were cultured at 37 °C and 5% CO2 for 3 days. Supernatants were collected and the accumulated cytokines in culture were measured by ELISA kits (R&D Systems, Minneapolis, MN) following manufacturers’ instructions. Cells were harvested for staining and flow cytometry analysis.

For orientation: IC50 means the concentration needed to halve the response being measured. On to `COc1nc2ccc([C@@](O)(c3ccc(C)nc3C)c3cnnn3C)cc2c(Cl)c1Cc1ccc(C(F)(F)F)cc1` [JNJ-54271074], for which the IC50 in assay [1] (no anti-CD3/anti-CD28, read-out: IC50, IL-23-stimulated IL-17A production) is 19 nM; in assay [1] (no anti-CD3/anti-CD28, read-out: IC50, IL-23-stimulated IL-22 production) it was 37 nM; in assay [3] (Th17-polarizing condition, supernatant, read-out: IC50, IL-17A production), 17 nM; in assay [3] (flow cytometry, read-out: IC50, total IL-17A-producing cells) it was 21 nM. Also, the “accumulated IFNγ production” value in assay [2] is reported as “minimal effect”. Also, the “IFNγ+ cells” value in assay [2] (1 μM) was “slightly increased”. In addition, the “IL-17A+/IFNγ+ and IL-17A+ cells” value in assay [2] (1 μM) was “decreased”. For the same compound, the IL-17A-producing cells entry in assay [3] (1 μM, flow cytometry) is recorded as “almost completely abolished”. For the same compound, the TNFα production entry in assay [3] (Th17-polarizing condition, supernatant) is recorded as “did not inhibit”.
